Results: patent publication US10376504B2, “Substituted quinolinones as PDE9 inhibitors” (Merck Sharp & Dohme Corp., priority 2015, dated 2019)

Molecular target: human PDE9 (PDE9A2) (Homo sapiens (Human), UniProt O76083)
Assay: PDE9 IMAP fluorescence polarization (FP) inhibition assay
Type: biochemical
Conditions: FAM-cGMP substrate 50 nM, room temperature
Description: The activity of the compounds in accordance with the present invention as PDE9 inhibitors may be readily determined without undue experimentation using a fluorescence polarization (FP) methodology that is well known in the art (Huang, W., et al., J. Biomol Screen, 2002, 7: 215).
In a typical experiment the PDE9 inhibitory activity of the compounds of the present invention was determined in accordance with the following experimental method. Rhesus PDE9A2 was amplified from rhesus whole brain cDNA (Biochain Institute) essentially as described in Hutson, et al. Neuropharmacology (2011) 61(4):665-676. HEK 293 or CHO cells over-expressing rhesus or rat PDE9A2 (created by DiscoverX from mRNA Genbank accession # NM_138543) respectively were lysed in 20 mM HEPES, 1 mM EDTA buffer with protease inhibitors (Roche, Indianapolis, Ind.). After brief homogenization, cells were pelleted via centrifugation at 75,000×g for 20 min at 4° C. The pellets were re-suspended, centrifuged and re-pelleted again in the same manner. The membrane fraction was collected in 20 mM HEPES, 1 mM MgCl2 with protease inhibitors. Human PDE9 (PDE9A2, GenBank Accession No. NM_001001567), full length with N-terminal GST tag, was purchased from BPS Bioscience. The fluorescence polarization assay for cyclic nucleotide phosphodiesterases was performed using an IMAP® FP kit supplied by Molecular Devices, Sunnyvale, Calif. (product # R8139). IMAP® technology has been applied previously to phosphodiesterase assays (Huang, W., et al., J. Biomol Screen, 2002, 7: 215). Assays were performed at room temperature in 384-well microtiter plates with an incubation volume of 20.2 μL. Solutions of test compounds were prepared in DMSO and serially diluted with DMSO to yield 8 μL of each of 10 solutions differing by 3-fold in concentration, at 32 serial dilutions per plate. 100% inhibition is determined using a known PDE9 inhibitor, such as 1-(2-chlorophenyl)-6-[(2R)-3,3,3-trifluoro-2-methylpropyl]-1,5-dihydro-4H-pyrazolo[3,4-d]pyrimidine-4-one (BAY 73-6691) (Wunder et al, Mol. Pharmacol., 2005, 68(6): 1775-81), (6-[(3S,4S)-4-methyl-1-(pyrimidin-2-ylmethyl)pyrrolidin-3-yl]-1-(tetrahydro-2H-pyran-4-yl)-1,5-dihydro-4H-pyrazolo[3,4-d]pyrimidin-4-one (PF-04447943) (Wager et al., ACS Chemical Neuroscience, 2010, 1:435-449). 0% of inhibition is determined by using DMSO (1% final concentrations). A Labcyte Echo 555 (Labcyte, Sunnyvale, Calif.) is used to dispense 200 nL from each well of the titration plate to the 384 well assay plate. Rhesus membrane preps were diluted to 4 ng/ml, rat membrane preps diluted to 13 ng/ml, and human PDE9A2 diluted to 1 ng/ml. FAM-labeled cGMP substrate (Molecular Devices, Sunnyvale, Calif.) was at a concentration of 100 nM (Km of PDE9 for cGMP is 70-170 nM) in the assay buffer (10 mM Tris HCl, pH 7.2, 10 mM MgCl2, 0.05% NaN3 0.01% Tween-20, and 1 mM DTT). PDE9 enzyme mix and compounds were mixed and incubated at room temperature for 30 min. Following which, FAMcGMP substrate was added, shaken and incubated for an additional 60 min at room temperature. The final concentrations of rhesus and rat membrane preparations were 2 ng/ml and 6.5 ng/ml, respectively, while the human PDE9 was used at a final concentration of 0.5 ng/ml. The final concentration of FAM-cGMP was 50 nM. After the incubation period, the enzymatic reaction was stopped by addition of binding solution (IMAP-FP, Molecular Devices, comprised of 80% Solution A, 20% Solution B and a 1:600 dilution of binding reagent) to each well. The plates were shaken then incubated at room temperature for 1 h prior to determining the fluorescence polarization (mP) using a Perkin Elmer EnVision™ plate reader (Waltham, Mass.).
Fluorescence polarization (mP) was calculated from the parallel (S) and perpendicular (P) fluorescence of each sample well and the analogous values for the median control well, containing only substrate (So and Po), using the following equation: Polarization(mP)=1000*(S/So−P/Po)/(S/So+P/Po). […]

human PDE9 (PDE9A2), sequence (O76083 other isoform, or with tags, fused parts or gaps): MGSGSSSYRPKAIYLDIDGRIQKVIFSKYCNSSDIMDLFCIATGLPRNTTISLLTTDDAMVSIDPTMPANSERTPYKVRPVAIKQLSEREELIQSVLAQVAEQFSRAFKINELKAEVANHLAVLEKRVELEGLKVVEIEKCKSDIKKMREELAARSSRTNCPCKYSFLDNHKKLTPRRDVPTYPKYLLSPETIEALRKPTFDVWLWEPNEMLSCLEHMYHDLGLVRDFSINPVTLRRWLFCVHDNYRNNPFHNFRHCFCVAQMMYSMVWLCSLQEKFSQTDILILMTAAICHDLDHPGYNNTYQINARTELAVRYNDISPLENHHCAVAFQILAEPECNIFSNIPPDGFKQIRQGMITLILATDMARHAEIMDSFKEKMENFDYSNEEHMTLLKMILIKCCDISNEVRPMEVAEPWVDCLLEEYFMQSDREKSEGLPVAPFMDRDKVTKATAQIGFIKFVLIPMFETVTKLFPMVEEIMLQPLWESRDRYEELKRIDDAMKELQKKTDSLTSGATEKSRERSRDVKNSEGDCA

SMILES: N#Cc1c(N2CC[C@@H](n3cccn3)C2)c2ccccc2[nH]c1=O [Example 1-7, (R)-4-(3-[1H-pyrazol-1-yl]pyrrolidin-1-yl)-2-oxo-1,2-dihydroquinoline-3-carbonitrile]
- Ki: 7.5 nM

SMILES: N#Cc1c(N2CCCCCC2)c2ccccc2[nH]c1=O [Example 1-8, 4-(azepan-1-yl)-2-oxo-1,2-dihydroquinoline-3-carbonitrile]
- Ki: 18 nM

SMILES: N#Cc1c(N2CCC2)c2ccccc2[nH]c1=O [Example 1-9, 4-(azetidin-1-yl)-2-oxo-1,2-dihydroquinoline-3-carbonitrile]
- Ki: 5550 nM

SMILES: CCN(CC)c1c(C#N)c(=O)[nH]c2ccccc12 [Example 1-10, 4-(diethylamino)-2-oxo-1,2-dihydroquinoline-3-carbonitrile]
- Ki: 88.9 nM

SMILES: CC1(C)CCN(c2c(C#N)c(=O)[nH]c3ccccc23)CC1 [Example 1-11, 4-(4,4-dimethylpiperidin-1-yl)-2-oxo-1,2-dihydroquinoline-3-carbonitrile]
- Ki: 26.3 nM

SMILES: N#Cc1c(NCCC2COC2)c2ccccc2[nH]c1=O [Example 1-12, 4-((2-(oxetan-3-yl)ethyl)amino)-2-oxo-1,2-dihydroquinoline-3-carbonitrile]
- Ki: 71.1 nM
